# According to patent publication US12559529B2, “NPY2 receptor agonists” (Boehringer Ingelheim International GmbH, priority 2019, dated 2026):
# *1 amine or outer side, *2 acyl side, *3 side chain or, on linkers, in order; H or OH if unused. Where a SMILES comes first, the peptide text is derived from it. Side-chain parts run from the residue outwards. The star is where a group is joined. C18 diacid = O=C(O)CCCCCCCCCCCCCCCCC(=O)*; γGlu = O=C(O)[C@H](CCC(=O)[*:2])N[*:1]; Isovaleryl = CC(C)CC(=O)*; AEEA = NCCOCCOCC(=O)O
# Target: T1, Human Neuropeptide Y2 Receptor (Homo sapiens, UniProt P49146)
# T1 construct: purchased CHEMICON HTS066M
# T1 sequence (P49146 1-381): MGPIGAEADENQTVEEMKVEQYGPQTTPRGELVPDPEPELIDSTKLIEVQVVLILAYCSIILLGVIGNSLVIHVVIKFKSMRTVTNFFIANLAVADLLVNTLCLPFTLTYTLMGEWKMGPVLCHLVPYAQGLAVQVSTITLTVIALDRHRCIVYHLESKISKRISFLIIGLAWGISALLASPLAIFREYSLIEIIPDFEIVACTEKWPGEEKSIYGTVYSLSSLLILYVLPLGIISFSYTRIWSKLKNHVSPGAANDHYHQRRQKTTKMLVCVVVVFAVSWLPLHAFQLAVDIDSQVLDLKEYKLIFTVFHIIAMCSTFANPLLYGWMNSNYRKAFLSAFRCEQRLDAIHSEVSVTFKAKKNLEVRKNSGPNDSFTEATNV
# Assay: Radioligand binding competition assay (RLB)
# Details: Table 3; human 125I-PYY (1-36) 0.02 nM, Y2 receptor membranes; read-out: Ki
# Outline: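 IC50 values come from nonlinear regression of sigmoidal dose-response curves of filter-bound radioactivity. Peptides competed with radioligand at human Y2 receptor membranes (0.5 μg protein/well) for 2 h at room temperature in pH 7.4 HEPES buffer containing Mg2+, Ca2+ and 0.2% ovalbumin.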
row,Compound,Ki [nM]
1,"CC(C)CC(=O)N[C@@H](C)C(=O)N1CCC[C@H]1C(=O)N[C@@H](C)C(=O)N[C@@H](CCCCNC(=O)COCCOCCNC(=O)COCCOCCNC(=O)CC[C@H](NC(=O)CCCCCCCCCCCCCCCCC(=O)O)C(=O)O)C(=O)N1CCC[C@H]1C(=O)N1CCC[C@H]1C(=O)N[C@@H](CCC(=O)O)C(=O)N[C@@H](CC(=O)O)C(=O)N[C@@H](C)C(=O)N[C@@H](CCC(=O)O)C(=O)N1CCC[C@H]1C(=O)N[C@@H](CCC(=O)O)C(=O)N[C@@H](CCC(=O)O)C(=O)N[C@@H](CC(C)C)C(=O)N[C@@H](CCC(N)=O)C(=O)N[C@@H](CCCNC(=N)N)C(=O)N[C@@H](Cc1ccc(O)cc1)C(=O)N[C@@H](Cc1ccc(O)cc1)C(=O)N[C@H](C(=O)N[C@@H](CO)C(=O)N[C@@H](CC(C)C)C(=O)N[C@@H](CCCNC(=N)N)C(=O)N[C@@H](Cc1c[nH]cn1)C(=O)N[C@@H](Cc1ccc(O)cc1)C(=O)N[C@@H](Cc1ccc(O)cc1)C(=O)N[C@@H](CC(N)=O)C(=O)N[C@@H](Cc1c[nH]c2ccccc12)C(=O)N[C@@H](CC(C)C)C(=O)N[C@H](C(=O)N[C@@H](CCCNC(=N)N)C(=O)N[C@@H](CCC(N)=O)C(=O)N[C@@H](CCCNC(=N)N)C(=O)N[C@@H](Cc1ccc(O)cc1)C(N)=O)[C@@H](C)O)C(C)C [Compound 196, N{alpha-4}-(3-methylbutanoyl)-N{epsilon-7}-[2-(2-{2-[2-(2-{2-[(4S)-4-carboxy-4-(17-carboxyheptadecanamido)butanamido]ethoxy}ethoxy)acetamido]ethoxy}ethoxy)acetamido]-[4A,6A,7K,9P,13E,18Q,22V,28Y,30W,31L]hPYY (4-36)]",0.98
2,"CC(C)CC(=O)N[C@@H](C)C(=O)N1CCC[C@H]1C(=O)N[C@@H](CCC(=O)O)C(=O)N[C@@H](CCCCNC(=O)COCCOCCNC(=O)COCCOCCNC(=O)CC[C@H](NC(=O)CCCCCCCCCCCCCCCCC(=O)O)C(=O)O)C(=O)N1CCC[C@H]1C(=O)N[C@@H](CCC(=O)O)C(=O)N[C@@H](CCC(=O)O)C(=O)N[C@@H](CC(=O)O)C(=O)N[C@@H](C)C(=O)N[C@@H](CCC(=O)O)C(=O)N1CCC[C@H]1C(=O)N[C@@H](CCC(=O)O)C(=O)N[C@@H](CCC(=O)O)C(=O)N[C@H](C(=O)N[C@@H](CCC(N)=O)C(=O)N[C@@H](CCCNC(=N)N)C(=O)N[C@@H](Cc1ccc(O)cc1)C(=O)N[C@@H](Cc1ccc(O)cc1)C(=O)N[C@H](C(=O)N[C@@H](CO)C(=O)N[C@@H](CC(C)C)C(=O)N[C@@H](CCCNC(=N)N)C(=O)N[C@@H](Cc1c[nH]cn1)C(=O)N[C@@H](Cc1ccc(O)cc1)C(=O)N[C@@H](Cc1ccc(O)cc1)C(=O)N[C@@H](CC(N)=O)C(=O)N[C@@H](Cc1c[nH]c2ccccc12)C(=O)N[C@@H](CC(C)C)C(=O)N[C@H](C(=O)N[C@@H](CCCNC(=N)N)C(=O)N[C@@H](CCC(N)=O)C(=O)N[C@@H](CCCNC(=N)N)C(=O)N[C@@H](Cc1ccc(O)cc1)C(N)=O)[C@@H](C)O)C(C)C)[C@@H](C)O [Compound 199, N{alpha-4}-(3-methylbutanoyl)-N{epsilon-7}-[2-(2-{2-[2-(2-{2-[(4S)-4-carboxy-4-(17-carboxyheptadecanamido)butanamido]ethoxy}ethoxy)acetamido]ethoxy}ethoxy)acetamido]-[4A,7K,9E,13E,17T,18Q,22V,28Y,30W,31L]hPYY (4-36)]",5.69
3,"CC(C)CC(=O)N[C@@H](C)C(=O)N1CCC[C@H]1C(=O)N[C@@H](CCC(=O)O)C(=O)N[C@@H](CCCCNC(=O)COCCOCCNC(=O)COCCOCCNC(=O)CC[C@H](NC(=O)CCCCCCCCCCCCCCCCC(=O)O)C(=O)O)C(=O)N1CCC[C@H]1C(=O)N[C@@H](CCC(=O)O)C(=O)N[C@@H](CCC(=O)O)C(=O)N[C@@H](CCC(=O)O)C(=O)N[C@@H](C)C(=O)N[C@@H](CO)C(=O)N1CCC[C@H]1C(=O)N[C@@H](CCC(=O)O)C(=O)N[C@@H](CCC(=O)O)C(=O)N[C@H](C(=O)N[C@@H](CCC(N)=O)C(=O)N[C@@H](CCCNC(=N)N)C(=O)N[C@@H](Cc1ccc(O)cc1)C(=O)N[C@@H](Cc1ccc(O)cc1)C(=O)N[C@H](C(=O)N[C@@H](CO)C(=O)N[C@@H](CC(C)C)C(=O)N[C@@H](CCCNC(=N)N)C(=O)N[C@@H](Cc1c[nH]cn1)C(=O)N[C@@H](Cc1ccc(O)cc1)C(=O)N[C@@H](Cc1ccc(O)cc1)C(=O)N[C@@H](CC(N)=O)C(=O)N[C@@H](Cc1c[nH]c2ccccc12)C(=O)N[C@@H](CC(C)C)C(=O)N[C@H](C(=O)N[C@@H](CCCNC(=N)N)C(=O)N[C@@H](CCC(N)=O)C(=O)N[C@@H](CCCNC(=N)N)C(=O)N[C@@H](Cc1ccc(O)cc1)C(N)=O)[C@@H](C)O)C(C)C)C(C)C [Compound 204, N{alpha-4}-(3-methylbutanoyl)-N{epsilon-7}-[2-(2-{2-[2-(2-{2-[(4S)-4-carboxy-4-(17-carboxyheptadecanamido)butanamido]ethoxy}ethoxy)acetamido]ethoxy}ethoxy)acetamido]-[4A,7K,9E,11E,17V,18Q,22V,28Y,30W,31L]hPYY (4-36)] (Isovaleryl-APEK([AEEA-AEEA-γGlu-C18 diacid])PEEEASPEEVQRYYVSLRHYYNWLTRQRY-NH2)",3.35

# Further lines, results first:
row,Ki [nM],Compound
1,1.65,"CC(C)CC(=O)N[C@@H](C)C(=O)N1CCC[C@H]1C(=O)N[C@@H](CCC(=O)O)C(=O)N[C@@H](CCCCNC(=O)COCCOCCNC(=O)COCCOCCNC(=O)CC[C@H](NC(=O)CCCCCCCCCCCCCCCCC(=O)O)C(=O)O)C(=O)N1CCC[C@H]1C(=O)N[C@@H](CCC(=O)O)C(=O)N[C@@H](CCC(=O)O)C(=O)N[C@@H](CC(=O)O)C(=O)N[C@@H](C)C(=O)N[C@@H](C)C(=O)N1CCC[C@H]1C(=O)N[C@@H](C)C(=O)N[C@@H](CCC(=O)O)C(=O)N[C@@H](CC(C)C)C(=O)N[C@@H](CCC(N)=O)C(=O)N[C@@H](CCCNC(=N)N)C(=O)N[C@@H](Cc1ccc(O)cc1)C(=O)N[C@@H](Cc1ccc(O)cc1)C(=O)N[C@H](C(=O)N[C@@H](CO)C(=O)N[C@@H](CC(C)C)C(=O)N[C@@H](CCCNC(=N)N)C(=O)N[C@@H](Cc1c[nH]cn1)C(=O)N[C@@H](Cc1ccc(O)cc1)C(=O)N[C@@H](Cc1ccc(O)cc1)C(=O)N[C@@H](CC(N)=O)C(=O)N[C@@H](Cc1c[nH]c2ccccc12)C(=O)N[C@@H](CC(C)C)C(=O)N[C@H](C(=O)N[C@@H](CCCNC(=N)N)C(=O)N[C@@H](CCC(N)=O)C(=O)N[C@@H](CCCNC(=N)N)C(=O)N[C@@H](Cc1ccc(O)cc1)C(N)=O)[C@@H](C)O)C(C)C [Compound 192, N{alpha-4}-(3-methylbutanoyl)-N{epsilon-7}-[2-(2-{2-[2-(2-{2-[(4S)-4-carboxy-4-(17-carboxyheptadecanamido)butanamido]ethoxy}ethoxy)acetamido]ethoxy}ethoxy)acetamido]-[4A,7K,9E,13A,15A,18Q,22V,28Y,30W,31L]hPYY (4-36)]"
2,0.87,"CC(C)CC(=O)N[C@@H](C)C(=O)N1CCC[C@H]1C(=O)N[C@@H](C)C(=O)N[C@@H](CCCCNC(=O)COCCOCCNC(=O)COCCOCCNC(=O)CC[C@H](NC(=O)CCCCCCCCCCCCCCCCC(=O)O)C(=O)O)C(=O)N1CCC[C@H]1C(=O)N[C@@H](CCC(=O)O)C(=O)N[C@@H](C)C(=O)N[C@@H](CC(=O)O)C(=O)N[C@@H](C)C(=O)N[C@@H](CO)C(=O)N1CCC[C@H]1C(=O)N[C@@H](CCC(=O)O)C(=O)N[C@@H](CCC(=O)O)C(=O)N[C@@H](CC(C)C)C(=O)N[C@@H](CCC(N)=O)C(=O)N[C@@H](CCCNC(=N)N)C(=O)N[C@@H](Cc1ccc(O)cc1)C(=O)N[C@@H](Cc1ccc(O)cc1)C(=O)N[C@H](C(=O)N[C@@H](CCC(=O)O)C(=O)N[C@@H](CC(C)C)C(=O)N[C@@H](CCCNC(=N)N)C(=O)N[C@@H](Cc1c[nH]cn1)C(=O)N[C@@H](Cc1ccc(O)cc1)C(=O)N[C@@H](Cc1ccc(O)cc1)C(=O)N[C@@H](CC(N)=O)C(=O)N[C@@H](Cc1c[nH]c2ccccc12)C(=O)N[C@@H](CC(C)C)C(=O)N[C@H](C(=O)N[C@@H](CCCNC(=N)N)C(=O)N[C@@H](CCC(N)=O)C(=O)N[C@@H](CCCNC(=N)N)C(=O)N[C@@H](Cc1ccc(O)cc1)C(N)=O)[C@@H](C)O)C(C)C [Compound 197, N{alpha-4}-(3-methylbutanoyl)-N{epsilon-7}-[2-(2-{2-[2-(2-{2-[(4S)-4-carboxy-4-(17-carboxyheptadecanamido)butanamido]ethoxy}ethoxy)acetamido]ethoxy}ethoxy)acetamido]-[4A,6A,7K,9E,10A,18Q,22V,23E,28Y,30W,31L]hPYY (4-36)]"
